{"source": "paper PMC10759180", "about": "(RSC Advances, 2024)", "key": {"α-amylase": {"target": "α-amylase", "experiment": "In vitro α-amylase inhibition assay", "assay_type": "biochemical", "conditions": "read-out: α-Amylase activity IC50 ± SEM; mean ± SEM, triplicate; iodine starch method, pH 6.8, 50 °C, 30 minutes"}, "Staphylococcus aureus": {"tested_on": "Staphylococcus aureus", "experiment": "Antibacterial disc diffusion assay, Staphylococcus aureus", "assay_type": "cell-based", "conditions": "for Antibacterial zone of inhibition, Staphylococcus aureus: disc diffusion, samples 100 μM, kanamycin 10 μM, 24 hours at 37 °C"}, "Escherichia coli": {"tested_on": "Escherichia coli", "experiment": "Antibacterial disc diffusion assay, Escherichia coli", "assay_type": "cell-based", "conditions": "for Antibacterial zone of inhibition, Escherichia coli: disc diffusion, samples 100 μM, kanamycin 10 μM, 24 hours at 37 °C"}, "Bacillus subtilis": {"tested_on": "Bacillus subtilis", "experiment": "Antibacterial disc diffusion assay, Bacillus subtilis", "assay_type": "cell-based", "conditions": "samples 100 μM, kanamycin 10 μM, 24 hours at 37 °C"}, "Pseudomonas aeruginosa": {"tested_on": "Pseudomonas aeruginosa", "experiment": "Antibacterial disc diffusion assay, Pseudomonas aeruginosa", "assay_type": "cell-based", "conditions": "samples 100 μM, kanamycin 10 μM, 24 hours at 37 °C"}, "Candida albicans": {"tested_on": "Candida albicans", "experiment": "Antifungal disc diffusion assay, Candida albicans", "assay_type": "cell-based", "conditions": "read-out: Antifungal zone of inhibition, Candida albicans"}, "urease": {"target": "urease (Canavalia ensiformis, UniProt P07374)", "sequence (P07374 whole entry, looked up)": "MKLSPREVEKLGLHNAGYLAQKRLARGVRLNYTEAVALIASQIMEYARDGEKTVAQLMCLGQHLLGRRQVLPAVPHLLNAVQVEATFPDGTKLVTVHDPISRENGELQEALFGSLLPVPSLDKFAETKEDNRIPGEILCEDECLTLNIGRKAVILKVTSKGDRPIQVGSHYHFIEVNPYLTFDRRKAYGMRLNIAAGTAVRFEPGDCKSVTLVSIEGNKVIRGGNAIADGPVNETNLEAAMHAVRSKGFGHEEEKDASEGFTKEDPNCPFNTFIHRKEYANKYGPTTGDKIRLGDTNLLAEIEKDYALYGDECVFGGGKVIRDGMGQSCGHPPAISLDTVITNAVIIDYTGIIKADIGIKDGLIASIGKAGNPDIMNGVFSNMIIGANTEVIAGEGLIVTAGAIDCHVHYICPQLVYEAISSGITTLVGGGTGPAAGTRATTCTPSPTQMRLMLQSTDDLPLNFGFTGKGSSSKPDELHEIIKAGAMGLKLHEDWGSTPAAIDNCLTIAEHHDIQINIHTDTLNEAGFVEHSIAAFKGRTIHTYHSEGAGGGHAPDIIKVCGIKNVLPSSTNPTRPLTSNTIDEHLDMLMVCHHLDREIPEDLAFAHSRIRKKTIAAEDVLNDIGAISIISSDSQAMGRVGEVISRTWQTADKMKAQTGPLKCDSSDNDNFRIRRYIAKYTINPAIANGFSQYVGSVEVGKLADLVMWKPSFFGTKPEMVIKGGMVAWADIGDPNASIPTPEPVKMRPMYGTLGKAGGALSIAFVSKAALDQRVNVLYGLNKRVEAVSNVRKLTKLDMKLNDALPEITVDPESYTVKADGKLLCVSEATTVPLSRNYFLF", "conditions": "read-out: Urease activity IC50 ± SEM; pH 8.2"}}, "note": "Entries after “also recorded” stand apart in the source; their conditions may differ."}
{"smiles": "Cc1ccc(C(=O)N(C(=O)c2ccc(C)cc2)C(=S)N2N=C(c3ccc(F)cc3)CC2c2ccc(F)cc2)cc1", "note": "(stereo not shown) [Compound 5a, N-(3,5-Bis(4-fluorophenyl)-4,5-dihydro-1H-pyrazole-1-carbonothioyl)-4-methyl-N-(4-methylbenzoyl)benzamide]", "values": [{"measurement": "IC50", "setting": "α-amylase", "value": "118.4 ± 0.64", "unit": "µM"}]}
{"smiles": "Cc1ccc(C(=O)N(C(=O)c2ccc(C)cc2)C(=S)N2N=C(c3ccc(F)cc3)CC2c2cccc(F)c2)cc1", "note": "(stereo not shown) [Compound 5b, N-(5-(3-Fluorophenyl)-3-(4-fluorophenyl)-4,5-dihydro-1H-pyrazole-1-carbonothioyl)-4-methyl-N-(4-methylbenzoyl)benzamide]", "values": [{"measurement": "IC50", "setting": "α-amylase", "value": "99.3 ± 0.62", "unit": "µM"}]}
{"smiles": "Cc1ccc(C(=O)N(C(=O)c2ccc(C)cc2)C(=S)N2N=C(c3ccccc3)CC2c2ccc(F)cc2)cc1", "note": "(stereo not shown) [Compound 5d, N-(5-(4-Fluorophenyl)-3-phenyl-4,5-dihydro-1H-pyrazole-1-carbonothioyl)-4-methyl-N-(4-methylbenzoyl)benzamide]", "values": [{"measurement": "IC50", "setting": "α-amylase", "value": "104 ± 3.18", "unit": "µM"}, {"measurement": "zone of inhibition at 100 µM", "setting": "Staphylococcus aureus; Staphylococcus aureus, 24 h, read-out: Antibacterial zone of inhibition, Staphylococcus aureus", "value": 10, "unit": "mm"}, {"measurement": "Antibacterial zone of inhibition, Staphylococcus aureus", "setting": "Staphylococcus aureus", "value": "significant antibacterial activity; also recorded: excellent bacterial inhibition zone"}, {"measurement": "zone of inhibition at 100 µM", "setting": "Escherichia coli; Escherichia coli, 24 h, read-out: Antibacterial zone of inhibition, Escherichia coli", "value": 7, "unit": "mm"}, {"measurement": "Antibacterial zone of inhibition, Escherichia coli", "setting": "Escherichia coli", "value": "significant antibacterial activity; also recorded: excellent bacterial inhibition zone"}]}
{"smiles": "Cc1ccc(C(=O)N(C(=O)c2ccc(C)cc2)C(=S)N2N=C(c3ccc(Br)cc3)CC2c2ccc(F)cc2)cc1", "note": "(stereo not shown) [Compound 5e, N-(3-(4-Bromophenyl)-5-(4-fluorophenyl)-4,5-dihydro-1H-pyrazole-1-carbonothioyl)-4-methyl-N-(4-methylbenzoyl)benzamide]", "values": [{"measurement": "IC50", "setting": "α-amylase", "value": "97.4 ± 1.53", "unit": "µM"}]}
{"smiles": "Cc1ccc(C(=O)N(C(=O)c2ccc(C)cc2)C(=S)N2N=C(c3ccc(Br)cc3)CC2c2cccc(F)c2)cc1", "note": "(stereo not shown) [Compound 5f, N-(3-(4-Bromophenyl)-5-(3-fluorophenyl)-4,5-dihydro-1H-pyrazole-1-carbonothioyl)-4-methyl-N-(4-methylbenzoyl)benzamide]", "values": [{"measurement": "IC50", "setting": "α-amylase", "value": "90.3 ± 1.08", "unit": "µM"}]}
{"smiles": "Cc1ccc(C(=O)N(C(=O)c2ccc(C)cc2)C(=S)N2N=C(c3ccc(Cl)cc3)CC2c2ccc(Cl)cc2)cc1", "note": "(stereo not shown) [Compound 5g, N-(3,5-Bis(4-chlorophenyl)-4,5-dihydro-1H-pyrazole-1-carbonothioyl)-4-methyl-N-(4-methylbenzoyl)benzamide]", "values": [{"measurement": "IC50", "setting": "α-amylase", "value": "131 ± 1.56", "unit": "µM"}]}
{"smiles": "Cc1ccc(C(=O)N(C(=O)c2ccc(C)cc2)C(=S)N2N=C(c3ccccc3)CC2c2ccc(C)cc2)cc1", "note": "(stereo not shown) [Compound 5h, 4-Methyl-N-(4-methylbenzoyl)-N-(3-phenyl-5-(p-tolyl)-4,5-dihydro-1H-pyrazole-1-carbonothioyl)benzamide]", "values": [{"measurement": "IC50", "setting": "α-amylase", "value": "121 ± 3.75", "unit": "µM"}]}
{"smiles": "Cc1ccc(C(=O)N(C(=O)c2ccc(C)cc2)C(=S)N2N=C(c3ccc(C)cc3)CC2c2ccc(F)cc2)cc1", "note": "(stereo not shown) [Compound 5i, N-(5-(4-Fluorophenyl)-3-(p-tolyl)-4,5-dihydro-1H-pyrazole-1-carbonothioyl)-4-methyl-N-(4-methylbenzoyl)benzamide]", "values": [{"measurement": "IC50", "setting": "α-amylase", "value": "114.6 ± 0.28", "unit": "µM"}]}
{"smiles": "Cc1ccc(C(=O)N(C(=O)c2ccc(C)cc2)C(=S)N2N=C(c3ccc(C)cc3)CC2c2ccc(Cl)cc2)cc1", "note": "(stereo not shown) [Compound 5j, N-(5-(4-Chlorophenyl)-3-(p-tolyl)-4,5-dihydro-1H-pyrazole-1-carbonothioyl)-4-methyl-N-(4-methylbenzoyl)benzamide]", "values": [{"measurement": "IC50", "setting": "α-amylase", "value": "110 ± 1.56", "unit": "µM"}]}
{"smiles": "NC[C@H]1O[C@H](O[C@H]2[C@H](O)[C@@H](O[C@H]3O[C@H](CO)[C@@H](O)[C@H](N)[C@H]3O)[C@H](N)C[C@@H]2N)[C@H](O)[C@@H](O)[C@@H]1O", "note": "[Kanamycin, reference compound]", "values": [{"measurement": "Antibacterial zone of inhibition, Bacillus subtilis", "setting": "Bacillus subtilis", "value": 22, "unit": "mm"}, {"measurement": "Antibacterial zone of inhibition, Pseudomonas aeruginosa", "setting": "Pseudomonas aeruginosa", "value": 20, "unit": "mm"}, {"measurement": "Antibacterial zone of inhibition, Staphylococcus aureus", "setting": "Staphylococcus aureus", "value": 18, "unit": "mm"}, {"measurement": "Antibacterial zone of inhibition, Escherichia coli", "setting": "Escherichia coli", "value": 16, "unit": "mm"}]}
{"smiles": "CN(C/C=C/C#CC(C)(C)C)Cc1cccc2ccccc12", "note": "[Terbinafine]", "values": [{"measurement": "zone of inhibition at 10 µM", "setting": "Candida albicans", "value": 20, "unit": "mm"}]}
{"smiles": "NC(N)=S", "note": "[Thiourea]", "values": [{"measurement": "IC50", "setting": "urease", "value": "9.8 ± 0.1", "unit": "µM"}]}
